Patent US20120115724A1, “METHOD OF CONTROLLING UNDESIRED VEGETATION” (SYNGENTA CROP PROTECTION LLC, priority 2009, published 2012)

Tests used:
Type in all cases: in vivo
[1] = test system: CHEAL Chenopodium album; assay: Post-emergence crop and weed test (Example 15); conditions: 360 h, 30 g/ha, after 15 days, read-out: Percentage damage CHEAL
Method: (§1) Seeds of crop and representative weed species were sown in standard soil in pots. After cultivation for 14 days under controlled conditions in a glasshouse (at 22/16° C., day/night; 16 hours light; 65% humidity), the plants were sprayed. The spray solution was prepared by dissolving the technical active ingredient in acetone containing 10.56 wt % Emulsogen EL, 42.22 wt % N-methylpyrrolidone and 2.22 wt % DPG-monoethyl ether to give a 5% stock solution. This was then diluted with water containing 0.2% (v/v) of the adjuvant X-77 to give the desired treatment concentration.
(§2) The test plants were then grown on under controlled conditions in a glasshouse (at 22/16° C., day/night; 16 hours light; 65% humidity) and watered twice daily. After 15 days the test was evaluated (100 =total damage to plant; 0 =no damage to plant).

[2] = test system: SIDSP Sida spinosa; assay: Post-emergence crop and weed test (Example 15); conditions: 360 h, 30 g/ha, after 15 days, read-out: Percentage damage SIDSP
Method: as §1, §2

[3] = test system: ABUTH Abutilon theophrasti; assay: Post-emergence crop and weed test (Example 15); conditions: 360 h, 30 g/ha, after 15 days, read-out: Percentage damage ABUTH
Method: as §1, §2

[4] = test system: KCHSC Kochia scoparia; assay: Post-emergence crop and weed test (Example 15); conditions: Bassia scoparia, 360 h, 30 g/ha, after 15 days, read-out: Percentage damage KCHSC
Method: as §1, §2

[5] = test system: GALAP Galium aparine; assay: Post-emergence crop and weed test (Example 15); conditions: 360 h, 30 g/ha, after 15 days, read-out: Percentage damage GALAP
Method: as §1, §2

[6] = test system: AMARE Amaranthus retroflexus; assay: Post-emergence crop and weed test (Example 15); conditions: 360 h, 30 g/ha, after 15 days, read-out: Percentage damage AMARE
Method: as §1, §2

[7] = test system: IPOHE Ipomoea hederacea; assay: Post-emergence crop and weed test (Example 15); conditions: 360 h, 30 g/ha, after 15 days, read-out: Percentage damage IPOHE
Method: as §1, §2

[8] = test system: EPHHL Euphorbia heterophylla; assay: Post-emergence crop and weed test (Example 15); conditions: 360 h, 30 g/ha, after 15 days, read-out: Percentage damage EPHHL
Method: as §1, §2

[9] = test system: VERPE Veronica persica; assay: Post-emergence crop and weed test (Example 15); conditions: 360 h, 30 g/ha, after 15 days, read-out: Percentage damage VERPE
Method: as §1, §2

[10] = test system: GLXMA Soybean; assay: Post-emergence crop and weed test (Example 15); conditions: Glycine max, 360 h, 30 g/ha, after 15 days, read-out: Percentage damage GLXMA
Method: as §1, §2

[11] = test system: POLCO Polygonum convolvulus; assay: Post-emergence crop and weed test (Example 15); conditions: Fallopia convolvulus, 360 h, 30 g/ha, after 15 days, read-out: Percentage damage POLCO
Method: as §1, §2

[12] = test system: SINAR Sinapis arvensis; assay: Post-emergence crop and weed test (Example 15); conditions: Mutarda arvensis, 360 h, 30 g/ha, after 15 days, read-out: Percentage damage SINAR
Method: as §1, §2

[13] = test system: XANST Xanthium strumarium; assay: Post-emergence crop and weed test (Example 15); conditions: 360 h, 30 g/ha, after 15 days, read-out: Percentage damage XANST
Method: as §1, §2

[14] = test system: Alopecurus myosuroides (ALOMY); assay: Pre-emergence biological efficacy (Example 13); conditions: Alopecurus myosuroides, 312 h; pre-emergence, 1,000 g/ha, after 13 days; read-out: Percentage damage ALOMY
Summary of the method: (§3)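 Glasshouse pot test (24/16 °C day/night, 14 h photoperiod, 65% humidity): sowing, one-day cultivation, then spraying at a dose of 250 or 1000 g/ha. Visual damage scored 0–100 after 13 days.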

[15] = test system: Echinochloa crus-galli (ECHCG); assay: Pre-emergence biological efficacy (Example 13); conditions: Echinochloa crus-galli, 312 h; pre-emergence, 1,000 g/ha, after 13 days; read-out: Percentage damage ECHCG
Summary of the method: as §3

[16] = test system: Amaranthus retroflexus (AMARE); assay: Pre-emergence biological efficacy (Example 13); conditions: Amaranthus retroflexus, 312 h; pre-emergence, 1,000 g/ha, after 13 days; read-out: Percentage damage AMARE
Summary of the method: as §3

[17] = test system: Setaria faberi (SETFA); assay: Pre-emergence biological efficacy (Example 13); conditions: Setaria faberi, 312 h; pre-emergence, 1,000 g/ha, after 13 days; read-out: Percentage damage SETFA
Summary of the method: as §3

[18] = test system: Solanum nigrum (SOLNI); assay: Pre-emergence biological efficacy (Example 13); conditions: Solanum nigrum, 312 h; pre-emergence, 1,000 g/ha, after 13 days; read-out: Percentage damage SOLNI
Summary of the method: as §3

[19] = test system: Ipomea hederaceae (IPOHE); assay: Pre-emergence biological efficacy (Example 13); conditions: Ipomoea hederacea, 312 h; pre-emergence, 1,000 g/ha, after 13 days; read-out: Percentage damage IPOHE
Summary of the method: as §3

[20] = test system: Alopecurus myosuroides (ALOMY); assay: Post-emergence biological efficacy (Example 14); conditions: Alopecurus myosuroides, 312 h; post-emergence, 1,000 g/ha, after 13 days; read-out: Percentage damage ALOMY
Summary of the method: (§4)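 Eight-day-old potted plants received 250 or 1000 g/ha by foliar spray, then grew on at 24/16 °C day/night with twice-daily watering. Injury was rated 13 days later, where 0 means no damage and 100 means complete damage.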

[21] = test system: Echinochloa crus-galli (ECHCG); assay: Post-emergence biological efficacy (Example 14); conditions: Echinochloa crus-galli, 312 h; post-emergence, 1,000 g/ha, after 13 days; read-out: Percentage damage ECHCG
Summary of the method: as §4

[22] = test system: Amaranthus retroflexus (AMARE); assay: Post-emergence biological efficacy (Example 14); conditions: Amaranthus retroflexus, 312 h; post-emergence, 1,000 g/ha, after 13 days; read-out: Percentage damage AMARE
Summary of the method: as §4

[23] = test system: Setaria faberi (SETFA); assay: Post-emergence biological efficacy (Example 14); conditions: Setaria faberi, 312 h; post-emergence, 1,000 g/ha, after 13 days; read-out: Percentage damage SETFA
Summary of the method: as §4

[24] = test system: Solanum nigrum (SOLNI); assay: Post-emergence biological efficacy (Example 14); conditions: Solanum nigrum, 312 h; post-emergence, 1,000 g/ha, after 13 days; read-out: Percentage damage SOLNI
Summary of the method: as §4

[25] = test system: Ipomea hederaceae (IPOHE); assay: Post-emergence biological efficacy (Example 14); conditions: Ipomoea hederacea, 312 h; post-emergence, 1,000 g/ha, after 13 days; read-out: Percentage damage IPOHE
Summary of the method: as §4

Work on C=Cc1c(NCc2ccco2)nc(-c2ccc(Cl)cc2)nc1C(=O)OC [Compound 7, 2-(4-Chlorophenyl)-5-ethenyl-4-(furan-2-ylmethylamino)-6-methoxycarbonyl-pyrimi-dine] yielded a pest or weed control at 30 g/ha [1] of 20%, a pest or weed control at 30 g/ha [2] of 0% and a pest or weed control at 30 g/ha [3] of 70%. It also gave a pest or weed control at 30 g/ha [4] of 40%, a pest or weed control at 30 g/ha [5] of 60% and a pest or weed control at 30 g/ha [6] of 50%. It also gave a pest or weed control at 30 g/ha [7] of 70%, a pest or weed control at 30 g/ha [8] of 0% and a pest or weed control at 30 g/ha [9] of 80%. It also gave a plant injury at 30 g/ha [10] of 0%, a pest or weed control at 30 g/ha [11] of 40% and a pest or weed control at 30 g/ha [12] of 60%. It also gave a pest or weed control at 30 g/ha [13] of 50%, a pest or weed control at 1000 g/ha [14] of 50% and a pest or weed control at 1000 g/ha [15] of 20%. The pest or weed control at 1000 g/ha [16] was 100%, the pest or weed control at 1000 g/ha [17] was 10% and the pest or weed control at 1000 g/ha [18] was 20%. The pest or weed control at 1000 g/ha [19] was 40%, the pest or weed control at 1000 g/ha [20] was 30% and the pest or weed control at 1000 g/ha [21] was 40%. For the same compound, the pest or weed control at 1000 g/ha [22] was 100%, the pest or weed control at 1000 g/ha [23] was 0% and the pest or weed control at 1000 g/ha [24] was 90%. The pest or weed control at 1000 g/ha [25] was 80%.
